For 31 compounds, IC50 results are on record in patent US8304419B2, “Chemical compounds” (priority 2007, dated 2012).

The experiment has as its system HIV wild type (WTRVA). Briefly: HeLa cell assay, wild type virus (WTRVA). The class given is cell-based, HIV-1. Further details: scale not given here. The settings on record: Human immunodeficiency virus 1, HeLa.
Where [1] appears, read: HeLa cell assay, read-out: IC50 against WTRVA.
Setting [2] is: HeLa-CD4-LTR-β-gal cells, wild type virus, read-out: WTRVA activity level.

Where a name gives a salt, the structure may show the parent alone. Read-outs that look alike come from different tables or passages of the source. Some results are limits rather than exact numbers.

Regarding `C=Cc1cc(C#N)cc(Oc2c(Cl)ccc(CNC(=O)c3[nH]cnc3Cl)c2F)c1` [Example 143, 4-chloro-N-({4-chloro-3-[(3-cyano-5-ethenylphenyl)oxy]-2-fluorophenyl}methyl)-1H-imidazole-5-carboxamide], under setting [1], the IC50 is under 0.01 µM.
Regarding `N#Cc1cc(Cl)cc(Oc2c(Cl)ccc(CNC(=O)c3[nH]ccc3Cl)c2F)c1` [Example 128, 3-chloro-N-({4-chloro-3-[(3-chloro-5-cyanophenyl)oxy]-2-fluorophenyl}methyl)-1H-pyrrole-2-carboxamide], the IC50 is under 0.01 µM under setting [1] and under 0.01 µM under setting [2].
`CCCc1cc(C#N)cc(Oc2c(Cl)ccc(CNC(=O)c3[nH]cnc3Cl)c2F)c1` [Example 151, 4-chloro-N-({4-chloro-3-[(3-cyano-5-propylphenyl)oxy]-2-fluorophenyl}methyl)-1H-imidazole-5-carboxamide]: under setting [1], the IC50 is under 0.01 µM.
Regarding `N#Cc1cc(Cl)cc(Oc2c(Cl)ccc(CNC(=O)c3cc4ccc(N)cc4[nH]3)c2F)c1` [Example 123, 6-amino-N-({4-chloro-3-[(3-chloro-5-cyanophenyl)oxy]-2-fluorophenyl}methyl)-1H-indole-2-carboxamide trifluoroacetate], under setting [2], the IC50 was under 0.01 µM.
As for `N#Cc1cc(Cl)cc(Oc2c(Cl)ccc(CNC(=O)c3cc4cc(Br)ccc4[nH]3)c2F)c1` [Example 29, 5-bromo-N-({4-chloro-3-[(3-chloro-5-cyanophenyl)oxy]-2-fluorophenyl}methyl)-1H-indole-2-carboxamide], the IC50 under setting [2] is 0.01 to 1 µM.
Consider `COc1ccc2c(C(=O)NCc3ccc(Cl)c(Oc4cc(Cl)cc(C#N)c4)c3F)c[nH]c2c1` [Example 18, N-({4-chloro-3-[(3-chloro-5-cyanophenyl)oxy]-2-fluorophenyl}methyl)-6-(methyloxy)-1H-indole-3-carboxamide], for which the IC50 under setting [2] lay within 0.01 to 1 µM.
With `Cc1ccc2[nH]c(C(=O)NCc3ccc(Cl)c(Oc4cc(Cl)cc(C#N)c4)c3F)c(C)c2c1` [Example 52, N-({4-chloro-3-[(3-chloro-5-cyanophenyl)oxy]-2-fluorophenyl}methyl)-3,5-dimethyl-1H-indole-2-carboxamide trifluoroacetate], under setting [2], the IC50 was in the range of 0.01 to 1 µM.
As for `CC(O)CCOc1ccc2[nH]c(C(=O)NCc3ccc(Cl)c(Oc4cc(Cl)cc(C#N)c4)c3F)cc2c1` (centres unmarked) [Example 106, N-({4-chloro-3-[(3-chloro-5-cyanophenyl)oxy]-2-fluorophenyl}methyl)-5-[(3-hydroxybutyl)oxy]-1H-indole-2-carboxamide], under setting [2], the IC50 is under 0.01 µM.
With `Cc1nc(Cl)c(C(=O)NCc2ccc(Cl)c(Oc3cc(C#N)cc(C(F)F)c3)c2F)[nH]1` [Example 300, 4-chloro-N-[(4-chloro-3-{[3-cyano-5-(difluoromethyl)phenyl]oxy}-2-fluorophenyl)methyl]-2-methyl-1H-imidazole-5-carboxamide trifluoroacetate], the IC50 under setting [1] is under 0.01 µM.
As to `N#Cc1cc(Cl)cc(Oc2c(Br)ccc(CNC(=O)c3[nH]cnc3Br)c2F)c1` [Example 377, 4-bromo-N-({4-bromo-3-[(3-chloro-5-cyanophenyl)oxy]-2-fluorophenyl}methyl)-1H-imidazole-5-carboxamide], under setting [1], the IC50 was under 0.01 µM.
`CSc1ncc(C(=O)NCc2ccc(Cl)c(Oc3cc(Cl)cc(C#N)c3)c2F)[nH]1` [Example 66, N-({4-chloro-3-[(3-chloro-5-cyanophenyl)oxy]-2-fluorophenyl}methyl)-2-(methylthio)-1H-imidazole-4-carboxamide trifluoroacetate]: the IC50 under setting [2] was in the range of 0.01 to 1 µM.
Turning to `CCc1c(C(=O)NCc2ccc(Cl)c(Oc3cc(Cl)cc(C#N)c3)c2F)[nH]c2ccc(OC)cc12` [Example 81, N-({4-chloro-3-[(3-chloro-5-cyanophenyl)oxy]-2-fluorophenyl}methyl)-3-ethyl-5-(methyloxy)-1H-indole-2-carboxamide trifluoroacetate], the IC50 under setting [2] is 0.01 to 1 µM.
Same read-out and setting: the figure for `CC(=O)Nc1ccc2[nH]c(C(=O)NCc3ccc(Cl)c(Oc4cc(Cl)cc(C#N)c4)c3F)cc2c1` [Example 121, 5-(acetylamino)-N-({4-chloro-3-[(3-chloro-5-cyanophenyl)oxy]-2-fluorophenyl}methyl)-1H-indole-2-carboxamide] is under 0.01 µM; for `CS(=O)(=O)c1ccc(C(=O)NCc2ccc(Cl)c(Oc3cc(Cl)cc(C#N)c3)c2F)c(Cl)c1` [Example 16, 2-chloro-N-({4-chloro-3-[(3-chloro-5-cyanophenyl)oxy]-2-fluorophenyl}methyl)-4-(methylsulfonyl)benzamide] it is 0.01 to 1 µM.
Take `Cc1nc(Cl)c(C(=O)NCc2ccc(C3CC3)c(Oc3cc(Cl)cc(C#N)c3)c2F)[nH]1` [Example 270, 4-Chloro-N-({3-[(3-chloro-5-cyanophenyl)oxy]-4-cyclopropyl-2-fluorophenyl}methyl)-2-methyl-1H-imidazole-5-carboxamide]: the IC50 under setting [1] is under 0.01 µM.
For `N#Cc1cc(Cl)cc(Oc2c(Cl)ccc(CNC(=O)c3ccc(S(N)(=O)=O)cc3Cl)c2F)c1` [Example 14, 4-(aminosulfonyl)-2-chloro-N-({4-chloro-3-[(3-chloro-5-cyanophenyl)oxy]-2-fluorophenyl}methyl)benzamide], the IC50 under setting [2] was in the range of 0.01 to 1 µM.
For `N#Cc1cc(Oc2c(Cl)ccc(CNC(=O)c3[nH]cnc3Cl)c2F)cc(C2CC2)c1` [Example 152, 4-chloro-N-({4-chloro-3-[(3-cyano-5-cyclopropylphenyl)oxy]-2-fluorophenyl}methyl)-1H-imidazole-5-carboxamide], the IC50 under setting [1] is under 0.01 µM.
On to `N#Cc1cc(Cl)cc(Oc2c(Cl)ccc(CNC(=O)c3cc4ccc(O)cc4[nH]3)c2F)c1` [Example 36, N-({4-chloro-3-[(3-chloro-5-cyanophenyl)oxy]-2-fluorophenyl}methyl)-6-hydroxy-1H-indole-2-carboxamide], for which the IC50 under setting [2] is under 0.01 µM.
With `CCCCc1nc(Cl)c(C(=O)NCc2ccc(Cl)c(Oc3cc(Cl)cc(C#N)c3)c2F)[nH]1` [Example 140, 2-butyl-4-chloro-N-({4-chloro-3-[(3-chloro-5-cyanophenyl)oxy]-2-fluorophenyl}methyl)-1H-imidazole-5-carboxamide trifluoroacetate], the IC50 under setting [2] is under 0.01 µM.
Turning to `Cc1cc(C#N)cc(Oc2c(Cl)ccc(CNC(=O)c3[nH]c(C)nc3Cl)c2F)n1` [Example 271, 4-Chloro-N-({4-chloro-3-[(4-cyano-6-methyl-2-pyridinyl)oxy]-2-fluorophenyl}methyl)-2-methyl-1H-imidazole-5-carboxamide], the IC50 under setting [1] was under 0.01 µM.
Take `CC(=O)Nc1ccc2[nH]c(C(=O)NCc3ccc(Cl)c(Oc4cc(Cl)cc(C#N)c4)c3F)nc2c1` [Example 125, 5-(acetylamino)-N-({4-chloro-3-[(3-chloro-5-cyanophenyl)oxy]-2-fluorophenyl}methyl)-1H-benzimidazole-2-carboxamide]: the IC50 under setting [2] was under 0.01 µM.
Still for that read-out and setting: the figure for `N#Cc1cc(Cl)cc(Oc2c(Cl)ccc(CNC(=O)c3cc4ccc(OCc5ccccc5)cc4[nH]3)c2F)c1` [Example 43, N-({4-chloro-3-[(3-chloro-5-cyanophenyl)oxy]-2-fluorophenyl}methyl)-6-[(phenylmethyl)oxy]-1H-indole-2-carboxamide] is 0.01 to 1 µM.
`Cc1nc(Cl)c(C(=O)NCc2ccc(Br)c(Oc3cc(Cl)cc(C#N)c3)c2F)[nH]1` [Example 231, N-({4-bromo-3-[(3-chloro-5-cyanophenyl)oxy]-2-fluorophenyl}methyl)-4-chloro-2-methyl-1H-imidazole-5-carboxamide trifluoroacetate]: the IC50 under setting [1] was under 0.01 µM.
In the case of `COc1ccc(C(=O)NCc2ccc(Cl)c(Oc3cc(Cl)cc(C#N)c3)c2)c(C)c1` [Example 2, N-({4-chloro-3-[(3-chloro-5-cyanophenyl)oxy]phenyl}methyl)-2-methyl-4-(methyloxy)benzamide], under setting [2], the IC50 is over 1 µM.
Consider `CCc1ccc(CNC(=O)c2[nH]cnc2Cl)c(F)c1Oc1cc(Cl)cc(C#N)c1` [Example 250, 4-chloro-N-({3-[(3-chloro-5-cyanophenyl)oxy]-4-ethyl-2-fluorophenyl}methyl)-1H-imidazole-5-carboxamide], for which the IC50 under setting [1] is under 0.01 µM.
For `N#Cc1cc(Cl)cc(Oc2c(Cl)ccc(CNC(=O)c3cc([N+](=O)[O-])c[nH]3)c2F)c1` [Example 70, N-({4-chloro-3-[(3-chloro-5-cyanophenyl)oxy]-2-fluorophenyl}methyl)-4-nitro-1H-pyrrole-2-carboxamide trifluoroacetate], the IC50 under setting [2] is under 0.01 µM.
As for `N#Cc1cc(Cl)cc(Oc2cc(CNC(=O)c3cc4cc([N+](=O)[O-])ccc4[nH]3)ccc2Cl)c1` [Example 9, N-({4-chloro-3-[(3-chloro-5-cyanophenyl)oxy]phenyl}methyl)-5-nitro-1H-indole-2-carboxamide], the IC50 under setting [2] is over 1 µM.
In the case of `N#Cc1cc(Cl)cc(Oc2c(Cl)ccc(CNC(=O)c3cc4cc(NC(=O)CN)ccc4[nH]3)c2F)c1` [Example 120, N-({4-chloro-3-[(3-chloro-5-cyanophenyl)oxy]-2-fluorophenyl}methyl)-5-(glycylamino)-1H-indole-2-carboxamide trifluoroacetate], the IC50 under setting [2] was under 0.01 µM.
`CC(C)c1cc(C#N)cc(Oc2c(Cl)ccc(CNC(=O)c3[nH]cnc3Cl)c2F)c1` [Example 159, 4-chloro-N-[(4-chloro-3-{[3-cyano-5-(1-methylethyl)phenyl]oxy}-2-fluorophenyl)methyl]-1H-imidazole-5-carboxamide]: the IC50 under setting [1] is under 0.01 µM.
With `N#Cc1cc(Cl)cc(Oc2c(Cl)ccc(CNC(=O)c3cc4cc(NC(=O)c5ccncc5)ccc4[nH]3)c2F)c1` [Example 114, N-({4-chloro-3-[(3-chloro-5-cyanophenyl)oxy]-2-fluorophenyl}methyl)-5-[(4-pyridinylcarbonyl)amino]-1H-indole-2-carboxamide], under setting [2], the IC50 is under 0.01 µM.
On to `N#Cc1cc(Cl)cc(Oc2c(Cl)ccc(CNC(=O)c3ncc[nH]3)c2F)c1` [Example 59, N-({4-chloro-3-[(3-chloro-5-cyanophenyl)oxy]-2-fluorophenyl}methyl)-1H-imidazole-2-carboxamide trifluoroacetate], for which the IC50 under setting [2] was under 0.01 µM.
